Laboratory results: patent publication US20030215817A1, “Modulation of gene expression in formation of fatty atherosclerotic lesions” (priority 2003, published 2003)
Structures can show the parent of a compound that is named as a salt.

Test system: Rec1_36 (TTAG 155) mRNA
Assay: quantified RT-PCR, Rec1_36
Assay type: in vivo, rabbit
Details: hypercholesterolemic plus lercanidipine racemate, eight weeks, H2 (normocholesterolemic)=1.0
Protocol: Nineteen of the isolated DST clones were further validated using RT-PCR analyses; the data are presented in FIGS. 6-24 and in Tables 5-23, below. For each DST examined, the optimal annealing temperature and reagent conditions were determined for the corresponding set of primers (see Table 25) based on results from a preliminary experiment. In eight separate reactions, each set of primers was assayed to find the optimal conditions by adjusting the following four parameters: primer concentration, dNTP concentration, MgCl2 concentration, and number of Taq polymerase units. Once optimal conditions were determined, each DST was run in duplicate multiple simultaneous reactions which usually included at least four dilutions of template (cDNA library), plus control reactions lacking template, and six sequential data points for numbers of cycles.
Reactions were performed using “Hot Start” PCR with the Clontech TaqStart antibody system (Cat. #5400-1). Each reaction contained 1 ml of the cDNA library dilution as template, determined amounts of AmpliTaq DNA polymerase (cat. #N808-0156), MgCl2, dNTPs (GibcoBRL cat. #10297-018), primer, and Clontech TaqStart Antibody in a 20 ml final reaction volume using 10×Taq buffer II (without MgCl2). Typically, a master mix containing all components except the template was prepared and aliquoted. […] At various times during the PCR run, tubes were removed sequentially on a predetermined schedule in order to quantitate expression of the target DST over a “window” of cycle times. After amplification, the samples were quantified via fluorimetry.
PCR was performed at annealing temperatures that were five degrees above the average melting temperature of each primer pair. For primers greater than 10 bases (in a 0.05M salt solution), melting temperature was calculated using the following formula: Tm=59.9+41[% GC]−[675/Primer Length], where %GC is the decimal value. Following determination of the average melting temperature of the primer pair, the annealing temperature was determined by adding five degrees to the average melting temperature. […]

COC(=O)C1=C(C)NC(C)=C(C(=O)OC(C)(C)CN(C)CCC(c2ccccc2)c2ccccc2)C1c1cccc([N+](=O)[O-])c1 (racemic) [lercanidipine, lercanidipine hydrochloride]
Relative Abundance Rec1_36, 100 pg F (cycle 30): 0.2 | Relative Abundance Rec1_36, 100 pg F (cycle 32): 0.5 | Relative Abundance Rec1_36, 100 pg F (cycle 34): 0.4
